Laboratory results reported in article PMC12022980, “Rational Design of PROTAC Linkers Featuring Ferrocene as a Molecular Hinge to Enable Dynamic Conformational Changes” (Journal of the American Chemical Society, 2025).

Assays:
Plasma stability assay = type: in vitro ADME; conditions: mouse plasma; read-out: stability T1/2 in mouse plasma
Experimental: Frozen plasma was thawed at 37 °C and centrifuged at 3000 rpm for 8 min to remove clots, and the supernatant was used in the experiment. The pH of the plasma was recorded, and only the pH range between 7.4 and 8 was used. The plasma and compound solution were prewarmed to 37 °C. 10 µL of prewarmed testing compound or reference compound (procaine) solution (20 μM in 0.05 mM sodium phosphate buffer (pH 7.4) with 0.5% BSA) was mixed with 90 μL of plasma at different time points to allow for 5, 15, 30, 45, and 60 min of incubation time. For 0 min, the plasma was mixed with vehicle only. Acetonitrile was added to the compound and plasma mixture to quench the reaction, and the resulting mixture was centrifuged (5594g for 15 min). The

[1] = LogD7.4 shake flask (octanol/phosphate buffer); type: physicochemical; conditions: octanol/potassium phosphate buffer, pH 7.4
Description: The modulation of lipophilicity could play a critical role in optimizing PROTACs. We thus utilized traditionally measured LogD values from shake flask experiments alongside chromatographically assessed ChromLogD values.[72] […] By incorporating ferrocene, permeability may be improved due to the feature of promoting IMHB-mediated compact conformations, while also balancing the lipophilicity of the polar ligand/PEG linkers. However, while sufficient lipophilicity is required for passive uptake over the cell membrane, it may also drive poor aqueous solubility.[73]
(§1) For the permeabilised-cell assay, 10 µL of digitonin was added, and plates were incubated in darkness for 5 minutes to allow permeabilisation. In each well 10 µL of the 10x PROTAC and vehicle control dilutions were dispensed. A 100x NanoBRET tracer solution (50 µM for VHL permeabilised-cell assay) was prepared with 100% DMSO, then diluted to a 20x solution with tracer dilution buffer. A 5 µL volume of tracer was dispensed into each well at a final concentration of 0.5 µM, and the plate was mixed at 300 RPM for 15 seconds. Finally, 50 µL of a 3x substrate solution (8.8 µL NanoBRET Nano-Glo substrate and 3,500 µL Opti-MEM) was added, and plates were incubated for 1 minute at room temperature before reading on a GloMax Discover as […]
HiBiT Lytic Assay with Zosuquidar Co-treatment […]
Luminescence was measured using the GloMax® Multiplex Luminescence and Fluorescence Protocol for 96-well plates. The luminescence signal for each well was normalised to the fluorescence signal and further normalised to the mean values from iPrOH-treated controls, then expressed as a ratio relative to the vehicle control. Curve fitting and DC50 values were determined in GraphPad Prism v.10.0.3 using nonlinear regression with a three-parameter logistic model to calculate DC50 values. […]
(§2) of 1 mL/min and a column temperature of 40 °C. […] Data were analysed with Shimadzu Open Solution Data Browser to obtain the RTs of the peak for each individual compound and standards. […]
ChromLogD values for the compounds were then calculated based on the regression curve. […]

[2] = ChromLogD (chromatographic); type: physicochemical; conditions: HPLC on Hypersil GOLD-C18 column, pH 7.4
Experimental: as §1
HiBiT Lytic Assay with Zosuquidar Co-treatment
A modified HiBiT lytic assay was used to assess the activity of zosuquidar on the BET degradation. […]
Luminescence was measured using the GloMax® Multiplex Luminescence and Fluorescence Protocol for 96-well plates. The luminescence signal for each well was normalised to the fluorescence signal and further normalised to the mean values from iPrOH-treated controls, then expressed as a ratio relative to the vehicle control. Curve fitting and DC50 values were determined in GraphPad Prism v.10.0.3 using nonlinear regression with a three-parameter logistic model to calculate DC50 values.
The stock solution of each test item was prepared from a 10mM stock in iPrOH, which was further diluted 1:50 with […] to obtain a 0.2 mM solution (4 µL of the test item stock solution is diluted with 196 µL DMSO) in insert vials. The samples were analysed on an HPLC system equipped with a HPLC-ThermoScientific Hypersil GOLD-C18 column (2.1 x 50 mm, 1.9 µm) and by MS detection using electrospray ionization (ESI) and Atmospheric Pressure Chemical Ionization (APCI) on a Shimadzu LCMS 2050. […]
as §2

[3] = Mouse liver microsome stability; type: in vitro ADME; conditions: liver microsomes; for CLint scaled at 1 µM: pH 7.4; for half-life at 1 µM: pH 7.4, read-out: stability T1/2 in mouse microsome
Experimental: Mouse Liver Microsome Stability
Testing compound (1.5 μL) or reference compound (500 μM in 5% iPrOH and 95% acetonitrile) was mixed with 18.75 μL of 20 mg/mL liver microsome (Corning) and 479.75 μL of potassium phosphate buffer (0.1 M potassium phosphate buffer, 1 mM EDTA, pH 7.4). The reaction was started by mixing 30 μL of the above mixture (prewarmed to 37 °C) with 15 μL of 6 mM NADPH stock solution (prewarmed to 37 °C). After incubating for 5, 15, 30, or 45 min, 135 μL of acetonitrile containing internal standard was added to stop the reaction. For 0 min, the compound and microsome mixture were mixed with acetonitrile first before adding NADPH. After quenching, the reaction mixture was centrifuged, and the supernatant was taken and diluted for LC-MS

Row | Structure (SMILES) | half-life at 2 µM (Plasma stability assay) [min] | logD [1] | chromatographic logD [2] | CLint scaled at 1 µM [3] [mL/min/kg] | half-life at 1 µM [3] [min]
1 | Cc1ncsc1-c1ccc(CNC(=O)[C@@H]2C[C@@H](O)CN2C(=O)[C@@H](NC(=O)CCCCCOCCOCCCCCC(=O)Nc2cccc3c2C(=O)N(C2CCC(=O)NC2=O)C3=O)C(C)(C)C)cc1 (stereo partly shown) [14a] | 33.4 | 3.3 | 3.7 | 5090 | 1.1
2 | Cc1ncsc1-c1ccc(CNC(=O)[C@@H]2C[C@@H](O)CN2C(=O)[C@@H](NC(=O)COCCOCCOCCOCCOCCOCC(=O)N[C@H](C(=O)N2C[C@H](O)C[C@H]2C(=O)NCc2ccc(-c3scnc3C)cc2)C(C)(C)C)C(C)(C)C)cc1 [CM11] | 234 | 2.9 | 3.2 | 212 | 25.8
